From patent publication US20110251135A1, “INHIBITORS OF PERITONEAL SEEDING OF CANCER CELLS” (University of Utah Research Foundation, priority 2008, published 2011) come the findings set out here.

Entries after “also recorded” stand apart in the source; their conditions may differ.

What all share (type): cell-based, human
One experiment relates to DLD-1 cells. Nature of the experiment: Soft agar colony formation assay. Conditions: 10 μM for 6 days. Here is the method:
(§1) DLD-1, HCT-116, and HT-29 cells were cultured for 6 days in soft agar in the presence of DMSO (control), 10 μM BAY 11-7082, or 10 μM BAY 11-7085. The data points represent the means of colony counts per field (20×) performed in 5 different regions of the culture dishes. The data shown represent a typical result of two separate experiments. FIG. 2B and FIG. 2C are graphs that show athymic mice received subcutaneous injections of HT-29 (FIG. B) or HCT-116 (FIG. C) cells, followed by […] of BAY 11-7085 (dark bars) or DMSO (white bars) intraperitoneally twice weekly. The bars represent the 25-75% ranges of the tumor volumes and the horizontal lines in the bars are the medians. Using the Kruskal-Wallace statistical test to compare the median tumor volumes between BAY 11-7085 and DMSO yielded a p-value of 0.005 for HT-29 cells but >0.05 for HCT-116 cells.
(§2) Anchorage-independent cell growth is a hallmark of cancer cells and is a good correlation to tumorigencity in vivo. Therefore, the effects of BAY 11-7082 and BAY 11-7085 were examined on colon cancer cell growth using the soft agar colony formation assay.

The next experiment concerns HT-29 cells. The experiment is described as follows: Soft agar colony formation assay. The settings on record: 10 μM for 6 days. Here is the method: as §1, §2
For the next experiment, the system named is HCT-116 cells. The experiment is described as follows: Soft agar colony formation assay. Conditions: 10 μM for 6 days. Here is the method:
as §1, §2

For a further experiment, the system named is DLD-1 and HT-29 cells. The experiment is described as follows: Readhesion survival of cells transduced with IκB super-repressor adenovirus (crystal violet). Here is the method: The percentage of apoptotic cells was determined using the annexin V assay. The data points represent the averages of three experiments; bars, +−.SE. E. DLD-1 and F. HT-29 cells were transduced with an adenovirus containing the IκB super-repressor construct. After 3 days, the cells were transiently suspended and allowed to readhere in the presence of subapoptotic concentrations of BAY 11-7085 or DMSO (vehicle) for 8 hours. The data are expressed as fractions of cells surviving compared with the controls (no adenovirus) and were quantitatively determined by staining the remaining adherent cells with crystal violet.
DLD-1 and HT-29 cells that were approximately 60-70% confluent were transduced with Ad-IκB super-repressor by adding 1-50 μL of purified virus to the cells. […] In a parallel experiment, the transduced cells were resuspended and allowed to readhere in BAY 11-7085 for 8 h. The percentage of surviving (nonapoptotic) cells was determined using crystal violet staining.
The specific involvement of NF-κB in the apoptotic mechanism of BAY 11-7085 was examined specifically. […] The transduced DLD-1 and HT-29 cells were then transiently suspended and allowed to readhere at concentrations of BAY 11-7085 below the in vitro apoptotic threshold (>20 μM) for these cell lines. […] Therefore, inhibition of NF-κB is important to the apoptotic effect of BAY 11-7085 during colon cancer cell readhesion.

The next experiment relates to NF-κB. The experiment is described as follows: NF-κB binding activity assay (TRANS-AM) in HT-29 cells. Here is the method:
The transiently suspended cells were lysed and allowed to bind to DNA oligonucleotides, containing the NF-κB consensus binding site, that were immobilized to 96-well plates. NF-κB protein bound to the oligonucleotides was detected by an antibody to the p65 subunit that only recognized p65 that is bound to DNA. The positive control was HeLa cells that were stimulated with TNFα. A control was performed using excess free NF-κB oligonucleotides (Competitor). […] NF-κB binding activity was determined by the TransAM assay as in FIG. 5A. […] The data shown represent typical results of three separate experiments. […] An immunoblot for COX-2 was performed.
Activation of NF-κB was also determined using the TRANS-AM™ assay (Active Motif, Carlsbad, Calif.) per the manufacturer's instructions. (Renard et al., “Development of a sensitive multi-well colorimetric assay for active NF-κB,” Nucleic Acids Res 29, E21, 2001). Briefly, cell monolayers on 60 mm dishes were washed with ice-cold PBS and removed by incubating in trypsin-PBS or scraping. The cells were centrifuged for 10 minutes at 1,000 rpm at 4° C. and resuspended for 10 minutes in 100 μL of 4° C. lysis buffer (20 mM HEPES (pH 7.5), 350 mM NaCl, 20% glycerol, 1% Igepal-CA630, 1 mM MgCl2, 0.5 mM EDTA, 0.1 mM EGTA, 1 μL of 1 M dithiothreitol and 10 μL of protease inhibitor cocktail (proprietary) per mL of lysis buffer). The lysates were centrifuged for 20 minutes at 14,000 g at 4° C. Lysates containing 5 μg of total protein were added to 20 μL of lysis buffer per well in 96-well dishes containing immobilized oligonucleotides corresponding to the NF-κB consensus DNA binding site (SEQ ID NO:2) (5′-[…]-3′). […] 100 μL of stop solution (0.5M H2SO4) was added to each well after which the absorbance was determined on a plate spectrophotometer at 450 nm. Specificity of binding was determined using 200-fold excess wildtype NF-κB oligonucleotides added at the time the cell lysates were added to the wells.
The same NF-κB binding assay was used to determine whether NF-κB inhibitors could diminish the activation of NF-κB by readhesion. […]

On to `CC(C)(C)c1ccc(S(=O)(=O)/C=C/C#N)cc1` [BAY 11-7085, (2E)-3-[4-(tertiarybutylphenyl)sulfonyl]-2-propenenitrile], for which the anchorage-independent proliferation entry in the experiment with DLD-1 cells is recorded as “significantly inhibited”; with HT-29 cells, “significantly inhibited”; in the experiment with HCT-116 cells, “but not HCT-116”. Besides, in the experiment on DLD-1 and HT-29 cells (DLD-1 and HT-29 cells during readhesion), the “in vitro apoptotic threshold” value was > 20 µM. Also, the “apoptotic threshold of BAY 11-7085 compared with the controls” value in the experiment with DLD-1 and HT-29 cells (DLD-1 and HT-29 expressing IκB super-repressor, readhesion 8 hours) was “significantly lowered the apoptotic threshold”. Further, in the experiment with NF-κB (adherent cells, increasing concentrations, up to 50 μM, 8 hours), the “constitutive NF-κB activation in adherent cells” value is reported as “relatively unaffected; also recorded: could not be inhibited”. Moreover, the “NF-κB activation induced by readhesion of transiently suspended colon cancer cells” value in the experiment on NF-κB (as little as 10 μM BAY 11-7085) is listed as “almost totally inhibited”. The “NF-κB activation caused by readhesion (TRANS-AM)” value in the experiment with NF-κB (transiently suspended HT-29, increasing concentrations, 8 hours) is “dose-related inhibition of this NF-κB activation”.
